Source: US20260028337A1, “COMPOUND FOR INHIBITING IRAK4 ACTIVITY AND USE THEREOF” (SHENZHEN ZHONGGE BIOLOGICAL TECHNOLOGY CO., LTD., priority 2022, published 2026)

Biological target: IRAK4 kinase (Homo sapiens (Human), UniProt Q9NWZ3)
Assay: IRAK4 Kinase Inhibition Assay (Cisbio HTRF KinEASE-STK S1 kit)
Type: biochemical
Settings: IRAK4 kinase protein 10 nM, ATP 200 μM, STK Substrate 1-biotin 1 μM, 37° C. 2 h, read-out: IC50 (nM), IRAK4 kinase inhibitory activity
Protocol: Test Example 1. IRAK4 Kinase Inhibition Assay
In this assay, Cisbio HTRF KinEASE-STK SI kit (62S 1 PEB) was used, in which assay/detection buffer, STK Substrate 1-biotin, Streptavidin-XL665, STK Antibody-Cryptate were contained.
After adding compound/DMSO to a 384-well plate (PerkinElmer 6008280) using Echo 665, 5 μL of 2-fold reaction concentration of IRAK4 kinase protein (final concentration: 10 nM) dissolved with assay buffer [1 volume of 5× kinase buffer+20 mM magnesium chloride (Sigma) solution+1 mM DTT (Alfa Aesar) solution+4 volumes deionized water] was added, followed by sealing the shallow well plate, shaking and then centrifuging at 1000 rpm for 1 min, and incubating at room temperature for 5 min; then 5 μL of 2-fold reaction concentration of a 1:1 mixture of STK Substrate 1-biotin (final concentration: 1 μM) and ATP (Sigma A1852) (final concentration: 200 μM) formulated with assay buffer was added, followed by sealing the shallow well plate, shaking and then centrifuging at 1000 rpm for 1 min, and incubating at 37° C. for 2 h, and then 10 μL of a 1:1 mixture of Streptavidin-XL665 (final concentration: 62.5 nM) and STK-antibody-cryptate dissolved with detection buffer was added, followed by sealing the shallow well plate, shaking and then centrifuging at 1000 rpm for 1 min, and incubating at room temperature for 1 h, and thereafter reading the value at the wavelength of 620 nm/665 nm using a microplate reader. The data were analyzed using Prism 9.3 software, and the IC50 value of IRAK4 kinase inhibition was fitted using a four parameter Logistic equation.

Chain of IRAK4 kinase (Q9NWZ3 whole entry): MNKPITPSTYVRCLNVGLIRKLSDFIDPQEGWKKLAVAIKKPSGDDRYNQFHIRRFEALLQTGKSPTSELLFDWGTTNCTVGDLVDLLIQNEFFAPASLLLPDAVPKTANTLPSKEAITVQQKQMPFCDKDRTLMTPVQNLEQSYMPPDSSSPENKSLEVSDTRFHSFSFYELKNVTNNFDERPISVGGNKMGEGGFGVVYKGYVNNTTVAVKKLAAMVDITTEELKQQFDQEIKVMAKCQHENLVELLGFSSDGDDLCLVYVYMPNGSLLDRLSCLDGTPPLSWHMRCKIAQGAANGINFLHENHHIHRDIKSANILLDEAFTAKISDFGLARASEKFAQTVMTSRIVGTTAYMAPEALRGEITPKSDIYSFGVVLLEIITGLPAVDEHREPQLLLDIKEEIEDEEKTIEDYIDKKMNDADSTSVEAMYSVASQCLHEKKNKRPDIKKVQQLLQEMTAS

First: O=C(NC1CCNC1)c1cnn2c(-c3cn(-c4cn(C5CCCCC5)nc4C(F)F)nn3)ccc2c1 (stereo not drawn) [Compound 67A, 7-(1-(1-cyclohexyl-3-(difluoromethyl)-1H-pyrazol-4-yl)-1H-1,2,3-triazol-4-yl]-N-(pyrrolidin-3-yl)pyrrolo[1,2-b]pyridazine-3-formamide]
Second: C[C@H]1COCCN1c1ccn2ncc(-c3cn(-c4cn(C5CCCCC5)nc4C(F)F)nn3)c2n1 [Compound 82A, (S)-4-(3-(1-(1-cyclohexyl-3-(difluoromethyl)-1H-pyrazol-4-yl)-1H-1,2,3-triazol-4-yl]pyrazolo[1,5-a]pyrimidin-5-yl)-3-methylmorpholine]
The IC50 of the first is higher: > 5000 nM for the first, 100 to 1000 nM for the second. The second is the more potent here.

First: OCC1CCC(n2cc(-n3cc(-c4cnn5ccc(N6CC7CC[C@H](C6)O7)nc45)nn3)c(C(F)F)n2)CC1 (stereo partly drawn) [Compound 99A, ((1r,4r)-4-(4-(4-(5-(8-oxa-3-azabicyclo[3.2.1]oct-3-yl)pyrazolo[1,5-a]pyrimidin-3-yl)-1H-1,2,3-triazol-1-yl)-3-(difluoromethyl)-1H-pyrazol 1-yl)cyclohexyl)methanol]
Second: OCC1CCC(n2cc(-n3cc(-c4cnn5ccc(N6CCC[C@@H](O)C6)nc45)nn3)c(C(F)F)n2)CC1 (stereo partly drawn) [Compound 113A, (R)-1-(3-(1-(3-(difluoromethyl)-1-((1r,4r)-4-(methylol)cyclohexyl)-1H-pyrazol-4-yl)-1H-1,2,3-triazol-4-yl]pyrazolo[1,5-a]pyrimidin-3-yl) piperidin-3-ol]
The IC50 of the first is higher: 100 to 1000 nM for the first, < 100 nM for the second. The second is the more potent here.

First: Cn1cc(-n2cc(-c3cnn4ccc(N5C[C@H]6C[C@@H]5CO6)nc34)nn2)c(C(F)F)n1 [Compound 46A]
Second: C[C@H]1CN(c2ccn3ncc(-c4cn(-c5cn(C6CCCCC6)nc5C(F)F)nn4)c3n2)CCO1 [Compound 83A, (2S)-4-(3-{1-[1-cyclohexyl-3-(difluoromethyl)-1H-pyrazol-4-yl]-1H-1,2,3-triazol-4-yl}pyrazolo[1,5-a]pyrimidin-5-yl)-2-methylmorpholine]
The IC50 of the first is higher: 1000 to 5000 nM for the first, 100 to 1000 nM for the second.

Compared with `OC[C@H]1CC[C@H](n2cc(-n3cc(-c4cnn5ccc(N6CC7(COC7)C6)nc45)nn3)c(C(F)F)n2)CC1` [Compound 90A, ((1r, 4r)-4-(4-(4-(5-(2-oxa-6-azaspiro[3.3]heptan-6-yl)pyrazolo[1,5-a]pyrimidin-3-yl)-1H-1,2,3-triazol-1-yl)-3-(difluoromethyl)-1H-pyrazol-1-yl]cyclohexyl)methanol], `CC1(O)CCN(c2ccn3ncc(-c4cn(-c5cn([C@H]6CC[C@H](CO)CC6)nc5C(F)F)nn4)c3n2)CC1` [Compound 93A, 1-(3-(1-(3-difluoromethyl)-1-((1r,4r)-4-(methylol)cyclohexyl)-1H-pyrazol-4-yl)-1H-1,2,3-triazol-4-ylpyrazolo[1,5-a]pyrimidin-5-yl)-4-methylpiperidin-4-ol] is lower in IC50: 100 to 1000 nM for the first, < 100 nM for the second.

`OC[C@H]1CC[C@H](n2cc(-n3cc(-c4cnn5ccc(N[C@@H]6CCCC[C@@H]6O)nc45)nn3)c(C(F)F)n2)CC1` [Compound 111A, (1S,2R)-2-((3-(1-(3-(difluoromethyl)-1-((1r,4R)-4-(methylol)cyclohexyl)-1H-pyrazol-4-yl)-1H-1,2,3-triazol-4-yl]pyrazolo[1,5-a]pyrimidin-5-yl)amino)cyclohexan-1-ol] and `OC[C@H]1CC[C@H](n2cc(-n3cc(-c4cnn5ccc(N6CCC(O)CC6)nc45)nn3)c(C(F)F)n2)CC1` [Compound 97A] cannot be ordered by IC50: < 100 nM for the first, < 100 nM for the second.

`CC1(C)C[C@H](n2cc(-n3cc(-c4cnn5ccc(N6CCOCC6)nc45)nn3)c(C(F)F)n2)CCN1` [Compound 86A, (R)-4-(3-(1-(3-(difluoromethyl)-1-(2,2-dimethylpiperidin-4-yl)-1H-pyrazol-4-yl)-1,2,3-triazol-4-yl]pyrazolo[1,5-a]pyrimidin-5-yl) morpholine] and `FC(F)c1nn(C2CCNCC2)cc1-n1cc(-c2cnn3ccc(N4CCOCC4)nc23)nn1` [Compound 69A, 4-(3-(1-(3-(difluoromethyl)-1-(piperidin-4-yl)-1H-pyrazol-4-yl)-1,2,3-triazol-4-yl]pyrazolo[1,5-a]pyrimidin-5-yl) morpholine] fall in the same range of IC50: 100 to 1000 nM for the first, 100 to 1000 nM for the second.
